# From US20230365530A1, “QUINAZOLINE-2,4-DIAMINE DERIVATIVE AND PHARMACEUTICAL COMPOSITION FOR PREVENTING OR TREATING CANCER COMPRISING SAME AS ACTIVE INGREDIENT” (THE ASEAN FOUNDATION, priority 2020, published 2023)
# Biological target: EHMT2 (Euchromatic histone-lysine N-methyltransferase 2) (Homo sapiens (Human), UniProt Q96KQ7)
# Assay: EHMT2 enzyme inhibition, LANCE TR-FRET
# Format: biochemical
# Conditions: histone H3 peptide, 1 hour at room temperature
# Experimental: In order to analyze the enzyme inhibitory efficacy of the compounds of Examples 1 to 89, EHMT2 (Euchromatic histone-lysine N-methyltransferase 2) enzyme activity was measured using the LANCE TR-FRET™ analysis method of Perkin Elmer. When the EHMT2 enzyme is activated, the 9th lysine residue of the biotinylated-histone peptide is methylated and the EU-conjugated antibody is combined to the methylated histone peptide. Then, when the complex is irradiated with light of excitation wavelength, the complex emits light having a wavelength of 665 nm through FRET phenomenon. Accordingly, fluorescence was measured, and IC50 values were calculated through a software to evaluate the EHMT2 enzyme activity inhibitory effect of the compounds of Examples 1 to 89.
# Specific experimental methods are as follows. First, the compounds of Examples 1 to 89 of 1 nM to 100 μM (4× conc.) were put into a 384 well plate (25 μL/well), and 2 μM EEMT2/G9a enzyme (4× conc.) was put into the 384 well plate (25 μL/well). The plate was then centrifuged at 1,500 rpm for 5 seconds after sealing the plate with plate sealing foil. After incubating the EHMT2/G9a enzyme, SAM, and the compounds of Examples above at room temperature for 10 minutes, 2 μM histone H3 peptide (4× conc.) was added to the 384-well plate (25 μL/well). After sealing the plate with plate sealing foil and centrifuging at 1,500 rpm for 5 seconds, an enzymatic reaction was performed at room temperature for 1 hour. Upon completion of the enzyme reaction, 5 μL each of 200 nM Ulight™-Streptavidin (4× conc.) and 8 nM Eu-antibody (4× conc.) was added to each well of the plate. The plate was sealed with plate sealing foil, centrifuged at 1,500 rpm for 5 seconds and reacted at room temperature for 1 hour. The signal values were measured with Envision (Ex 320 nm, Em 665 nm), and all background values obtained by reacting without enzyme were deleted from the measured raw data values. Then, the EHMT2 enzyme activity inhibitory effect of the compounds of Examples 1 to 89 was converted into % values, and compared with the EHMT2 activity when treated with 4% DMSO vehicle (=0 nM compound) as 100%.
# Chain of EHMT2 (Euchromatic histone-lysine N-methyltransferase 2) (Q96KQ7 whole entry): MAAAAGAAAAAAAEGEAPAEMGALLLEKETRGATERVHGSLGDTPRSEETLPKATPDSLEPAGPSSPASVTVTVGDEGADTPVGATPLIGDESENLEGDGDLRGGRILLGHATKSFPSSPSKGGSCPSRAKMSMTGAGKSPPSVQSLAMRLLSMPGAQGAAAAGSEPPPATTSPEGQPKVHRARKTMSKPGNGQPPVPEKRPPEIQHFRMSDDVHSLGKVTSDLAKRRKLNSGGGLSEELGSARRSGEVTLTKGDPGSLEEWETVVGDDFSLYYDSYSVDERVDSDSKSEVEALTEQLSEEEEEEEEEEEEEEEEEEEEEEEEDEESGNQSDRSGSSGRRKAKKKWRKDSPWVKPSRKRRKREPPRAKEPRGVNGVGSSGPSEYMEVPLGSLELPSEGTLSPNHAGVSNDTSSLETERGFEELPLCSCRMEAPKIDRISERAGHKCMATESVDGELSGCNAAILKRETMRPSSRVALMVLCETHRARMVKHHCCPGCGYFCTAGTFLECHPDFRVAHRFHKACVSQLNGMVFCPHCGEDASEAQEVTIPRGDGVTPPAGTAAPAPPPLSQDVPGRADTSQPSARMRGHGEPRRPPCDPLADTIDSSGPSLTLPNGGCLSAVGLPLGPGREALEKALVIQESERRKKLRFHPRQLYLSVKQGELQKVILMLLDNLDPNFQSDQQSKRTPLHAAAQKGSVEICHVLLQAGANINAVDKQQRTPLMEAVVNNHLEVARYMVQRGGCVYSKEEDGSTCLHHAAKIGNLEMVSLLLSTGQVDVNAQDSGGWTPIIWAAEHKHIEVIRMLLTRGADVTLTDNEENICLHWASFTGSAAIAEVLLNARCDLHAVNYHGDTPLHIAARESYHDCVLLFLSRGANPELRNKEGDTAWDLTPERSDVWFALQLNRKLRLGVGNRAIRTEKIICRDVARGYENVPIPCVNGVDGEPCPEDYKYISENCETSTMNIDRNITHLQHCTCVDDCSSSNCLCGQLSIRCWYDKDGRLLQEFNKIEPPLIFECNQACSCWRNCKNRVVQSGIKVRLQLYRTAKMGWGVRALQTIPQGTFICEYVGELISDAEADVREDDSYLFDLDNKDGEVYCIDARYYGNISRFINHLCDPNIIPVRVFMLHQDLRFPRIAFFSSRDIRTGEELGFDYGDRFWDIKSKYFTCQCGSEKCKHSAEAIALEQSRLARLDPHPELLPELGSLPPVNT
row,Compound,IC50
1,"COc1cc2c(NC3CCN(C(C)C)CC3)nc(N3CCCCC3)nc2cc1C#CCCC(=O)N(C)C [Example 1, 5-(4-((1-isopropylpiperidine-4-yl)amino)-6-methoxy-2-(piperidine-1-yl)quinazoline-7-yl)-N,N-dimethylpentyne-4-amide]",10000 to 100000 nM
2,"COc1cc2c(NC3CCN(C(C)C)CC3)nc(N3CCCCC3)nc2cc1C#CCCC(=O)N1CCCC1 [Example 2, 5-(4-((1-isopropylpiperidine-4-yl)amino)-6-methoxy-2-(piperidine-1-yl)quinazoline-7-yl)-1-(pyrrolidine-1-yl)4-pentyne-1-one]",10000 to 100000 nM
3,COc1cc2c(NC3CCN(C(C)C)CC3)nc(N3CCC(F)(F)CC3)nc2cc1C#CCCN(C)C [Example 4],1000 to 10000 nM
4,"COc1cc2c(NC3CCN(C(C)C)CC3)nc(N3CCOCC3)nc2cc1C#CCCN(C)C [Example 5, 7-(4-(dimethylamino)-1-butyne-1-yl)-N-(1-isopropylpiperidine-4-yl)-6-methoxy-2-morpholinoquinazoline-4-amine]",10000 to 100000 nM
5,"COc1cc2c(NC3CCN(C(C)C)CC3)nc(N3CCC(N(C)C)CC3)nc2cc1C#CCCN(C)C [Example 11, 7-(4-(dimethylamino)-1-butyne-1-yl)-2-(4-(dimethylamino)piperidine-1-yl)-N-(1-isopropylpiperidine-4-yl)-6-methoxyquinazoline-4-amine]",1000 to 10000 nM
6,"CCN(CC)CCC#Cc1cc2nc(N3CCCCC3)nc(NC3CCN(C(C)C)CC3)c2cc1OC [Example 13, 7-(4-(diethylamino)-1-butyne-1-yl)-N-(1-isopropylpiperidine-4-yl)-6-methoxy-2-(piperidine-1-yl)quinazoline-4-amine]",1000 to 10000 nM
7,"COc1cc2c(NC3CCN(C(C)C)CC3)nc(N3CCCCC3)nc2cc1C#CCCN1CCC(C)CC1 [Example 15, N-(1-isopropylpiperidine-4-yl)-6-methoxy-7-(4-(4-methylpiperidine-1-yl)-1-butyne-1-yl)-2-(piperidine-1-yl)quinazoline-4-amine]",1000 to 10000 nM
8,"COc1cc2c(NC3CCN(Cc4ccccc4)CC3)nc(N3CCCCC3)nc2cc1C#CCCN(C)C [Example 18, N-(1-benzylpiperidine-4-yl)-7-(4-(dimethylamino)-1-butyne-1-yl)-6-methoxy-2-(piperidine-1-yl)quinazoline-4-amine]",1000 to 10000 nM
9,"COc1cc2c(N[C@@H]3CCCN(Cc4ccccc4)C3)nc(N3CCCCC3)nc2cc1C#CCCN(C)C [Example 19, (R)-N-(1-benzylpiperidine-3-yl)-7-(4-(dimethylamino)-1-butyne-1-yl)-6-methoxy-2-(piperidine-1-yl)quinazoline-4-amine]",10000 to 100000 nM
10,"COc1cc2c(NCCN3CCCC3)nc(N3CCCCC3)nc2cc1C#CCCN(C)C [Example 20, 7-(4-(dimethylamino)-1-butyne-1-yl)-6-methoxy-2-(piperidine-1-yl)-N-(2-(pyrrolidine-1-yl)ethyl)quinazoline-4-amine]",1000 to 10000 nM
11,"COc1cc2c(NC3CCCCC3)nc(N3CCCCC3)nc2cc1C#CCCN(C)C [Example 23, N-cyclohexyl-7-(4-(dimethylamino)-1-butyne-1-yl)-6-methoxy-2-(piperidine-1-yl)quinazoline-4-amine]",10000 to 100000 nM
12,"COc1cc2c(NC3CCN(c4ccccc4)CC3)nc(N3CCCCC3)nc2cc1C#CCCN(C)C [Example 25, 7-(4-(dimethylamino)-1-butyne-1-yl)-6-methoxy-N-(1-phenylpiperidine-4-yl)-2-(piperidine-1-yl)quinazoline-4-amine]",1000 to 10000 nM
13,"COc1cc2c(NC3CCN(C(C)C)CC3)nc(N3CCCCC3)nc2cc1C#CCCN1CC[C@H](F)C1 [Example 29, (S)-7-(4-(3-fluoropyrrolidine-1-yl)-1-butyne-1-yl)-N-(1-isopropylpiperidine-4-yl)-6-methoxy-2-(piperidine-1-yl)quinazoline-4-amine]",100 to 1000 nM
14,"COc1cc2c(NC3CCN(C(C)C)CC3)nc(N3CCCCC3)nc2cc1C#CCCN1CC[C@@H](F)C1 [Example 30, (R)-7-(4-(3-fluoropyrrolidine-1-yl)-1-butyne-1-yl)-N-(1-isopropylpiperidine-4-yl)-6-methoxy-2-(piperidine-1-yl)quinazoline-4-amine]",100 to 1000 nM
15,"COc1cc2c(NCC3CCN(C)CC3)nc(N3CCCCC3)nc2cc1C#CCCN(C)C [Example 31, 7-(4-(dimethylamino)-1-butyne-1-yl)-6-methoxy-N-((1-methylpiperidine-4-yl)methyl)-2-(piperidine-1-yl)quinazoline-4-amine]",1000 to 10000 nM

# The next lines start with the values.
row,IC50,Compound
1,< 100 nM,"COc1cc2c(NC3CCN(C(C)C)CC3)nc(N3CCCC3)nc2cc1C#CCCN(C)C [Example 6, 7-(4-(dimethylamino)-1-butyne-1-yl)-N-(1-isopropylpiperidine-4-yl)-6-methoxy-2-(pyrrolidine-1-yl)quinazoline-4-amine]"
2,100 to 1000 nM,"COc1cc2c(NC3CCN(C(C)C)CC3)nc(N3CCN(C)CC3)nc2cc1C#CCCN(C)C [Example 7, 7-(4-(dimethylamino)-1-butyne-1-yl)-N-(1-isopropylpiperidine-4-yl)-6-methoxy-2-(4-methylpiperazine-1-yl)quinazoline-4-amine]"
3,< 100 nM,"COc1cc2c(NC3CCN(C(C)C)CC3)nc(N3CCCCCC3)nc2cc1C#CCCN(C)C [Example 8, 2-(azepane-1-yl)-7-(4-(dimethylamino)-1-butyne-1-yl)-N-(1-isopropylpiperidine-4-yl)-6-methoxyquinazoline-4-amine]"
4,< 100 nM,COc1cc2c(NC3CCN(C(C)C)CC3)nc(N3CCC4(CCCC4)C3)nc2cc1C#CCCN(C)C [Example 9]
5,100 to 1000 nM,"COc1cc2c(NC3CCN(C(C)C)CC3)nc(N3C[C@@H]4C[C@@H]4[C@@H]3CO)nc2cc1C#CCCN(C)C [Example 10, ((1S,2R,5R)-3-(7-(4-(dimethylamino)-1-butyne-1-yl)-4-((1-isopropylpiperidine-4-yl)amino)-6-methoxyquinazoline-2-yl)-3-azabicyclo[3.1.0]hexane-2-yl)methanol]"
6,< 100 nM,"COc1cc2c(NC3CCN(C(C)C)CC3)nc(N3CCCCC3)nc2cc1C#CCCN1CCCCC1 [Example 12, N-(1-isopropylpiperidine-4-yl)-6-methoxy-2-(piperidine-1-yl)-7-(4-(piperidine-1-yl)-1-butyne-1-yl)quinazoline-4-amine]"
7,< 100 nM,"COc1cc2c(NC3CCN(C(C)C)CC3)nc(N3CCCCC3)nc2cc1C#CCCN1CCCC1 [Example 16, N-(1-isopropylpiperidine-4-yl)-6-methoxy-2-(piperidine-1-yl)-7-(4-(pyrrolidine-1-yl)-1-butyne-1-yl)quinazoline-4-amine]"
8,< 100 nM,"COc1cc2c(NC3CCN(C(C)C)CC3)nc(N3CCCN(C)CC3)nc2cc1C#CCCN(C)C [Example 17, 7-(4-(dimethylamino)-1-butyne-1-yl)-N-(1-isopropylpiperidine-4-yl)-6-methoxy-2-(4-methyl-1,4-diazepane-1-yl)quinazoline-4-amine]"
9,100 to 1000 nM,"COc1cc2c(NCCCN(C)C)nc(N3CCCCC3)nc2cc1C#CCCN(C)C [Example 21, N1-(7-(4-(dimethylamino)-1-butyne-1-yl)-6-methoxy-2-(piperidine-1-yl)quinazoline-4-yl)-N3,N3-dimethylpropane-1,3-diamine]"
10,100 to 1000 nM,"COc1cc2c(NC3CCN(C)CC3)nc(N3CCCCC3)nc2cc1C#CCCN(C)C [Example 22, 7-(4-(dimethylamino)-1-butyne-1-yl)-6-methoxy-N-(1-methylpiperidine-4-yl)-2-(piperidine-1-yl)quinazoline-4-amine]"
11,< 100 nM,"COc1cc2c(NC3CCN(C4CC4)CC3)nc(N3CCCCC3)nc2cc1C#CCCN(C)C [Example 24, N-(1-cyclopropylpiperidine-4-yl)-7-(4-(dimethylamino)-1-butyne-1-yl)-6-methoxy-2-(piperidine-1-yl)quinazoline-4-amine]"
12,100 to 1000 nM,"COc1cc2c(NCc3cccnc3)nc(N3CCCCC3)nc2cc1C#CCCN(C)C [Example 26, 7-(4-(dimethylamino)-1-butyne-1-yl)-6-methoxy-2-(piperidine-1-yl)-N-(pyridine-3-ylmethyl)quinazoline-4-amine]"
13,100 to 1000 nM,"COc1cc2c(NC3CC(C)(C)NC(C)(C)C3)nc(N3CCCCC3)nc2cc1C#CCCN(C)C [Example 27, 7-(4-(dimethylamino)-1-butyne-1-yl)-6-methoxy-2-(piperidine-1-yl)-N-(2,2,6,6,-tetramethylpiperidine-4-yl)quinazoline-4-amine]"
14,100 to 1000 nM,"COc1cc2c(NCCN(C)C)nc(N3CCCCC3)nc2cc1C#CCCN(C)C [Example 28, N1-(7-(4-(dimethylamino)-1-butyne-1-yl)-6-methoxy-2-(piperidine-1-yl)quinazoline-4-yl)-N2,N2-dimethylethane-1,2-diamine]"
